Measured values as given in patent EP4772162A1, “COMPOSITION FOR IMPROVING SKIN CONDITION COMPRISING PEPTIDE AS ACTIVE INGREDIENT” (Caregen Co., Ltd., priority 2023, dated 2025).
Peptide text beside a SMILES is read from it.

What was measured:
MMP-1 in HaCaT cells = assay: Inhibition of UV-induced MMP-1 expression (Western blot); format: cell-based, human; details: UVB at 15 mJ/cm^2, peptide at 10 µM, 50 µM, and 100 µM, 24 hours after irradiation, FIG. 6B
Method: (§1) The effect of the peptide of SEQ ID NO: 1 prepared in Preparation Example 1 on MMP-1 expression induced by UV was evaluated.
(§2) NIH3T3 cells (a mouse fibroblast cell line) and HaCaT cells (a human keratinocyte cell line) were seeded in a 6-well plate at a density of 5 x 10^5 cells/well and cultured for 24 hours. The cultured cells were washed once with serum-free DMEM. The peptide prepared in Preparation Example 1 was mixed into serum-free DMEM at each concentration to prepare medium solutions containing the peptide at 10 µM, 50 µM, and 100 µM, and the medium solutions were added to the cells. The cells to which the peptide was added were cultured for 1 hour in a CO2 incubator at 37°C. After the cells were cultured, the medium was removed from the cells, and PBS was added. Using a UV irradiator (VILBER LOURMAT, Cat. No.: 3102-BSU, France), NIH3T3 cells were irradiated with UVA at 6 J/cm^2, and HaCaT cells were irradiated with UVB at 15 mJ/cm^2. After PBS was removed, the above-described peptide-containing medium solutions at the respective concentrations were added again to the cells. The cells to which the peptide was added were cultured for 24 hours in a CO2 incubator at 37°C. […] After treatment with an ECL solution (GE Healthcare, Cat. No.: RPN2232, USA), expression levels were analyzed using an ImageQuant 800 instrument (Cytiva, Cat. No.: 29-3994-81, USA).

collagen Iα1 gene = assay: Restoration of expression of extracellular matrix genes reduced by UV irradiation (RT-PCR); format: cell-based, mouse; details: NIH3T3 cells; UVA at 6 J/cm^2; peptide at 10 µM, 50 µM, and 100 µM; 6 hours after irradiation; FIG. 4
Method: (§3) Whether the peptide of SEQ ID NO: 1 prepared in Preparation Example 1 restores expression levels of extracellular matrix genes reduced by UV irradiation was evaluated.
(§4) NIH3T3 cells (a mouse fibroblast cell line) were seeded in a 6-well plate at a density of 5 x 10^5 cells/well and cultured for 24 hours. The cultured cells were washed once with serum-free DMEM. The peptide prepared in Preparation Example 1 was mixed into serum-free DMEM at each concentration to prepare medium solutions containing the peptide at 10 µM, 50 µM, and 100 µM, and the medium solutions were added to the cells. The cells to which the peptide was added were cultured for 1 hour in a CO2 incubator at 37°C. After the cells were cultured, the medium was removed from the cells, and PBS was added. Using a UV irradiator (VILBER LOURMAT, Cat. No.: 3102-BSU, France), the cells were irradiated with UVA at 6 J/cm^2. After PBS was removed, the above-described peptide-containing medium solutions at the respective concentrations were added again to the cells. The cells to which the peptide was added were cultured for 6 hours in a CO2 incubator at 37°C. After the cells were washed twice with PBS, RNA was isolated using easy blue (iNtRON, Cat. No.: 17061, Korea). The amount of RNA was quantified, 1,000 ng of RNA was added per tube, and then cDNA synthesis was performed using an RT kit (enzynomics, Cat. No.: RT200, Korea). Subsequently, PCR was performed using a PCR kit (enzynomics, Cat. No.: P581T, Korea), with collagen Iα1, fibronectin, or elastin gene as a detection target.

fibronectin gene [1] = assay: as above; format: cell-based, mouse; details: NIH3T3 cells; UVA at 6 J/cm^2; peptide at 10 µM, 50 µM, and 100 µM; 6 hours after irradiation; FIG. 4
Method: as §3, §4

elastin gene [2] = assay: as above; format: cell-based, mouse; details: NIH3T3 cells; UVA at 6 J/cm^2; peptide at 10 µM, 50 µM, and 100 µM; 6 hours after irradiation; FIG. 4
Method: as §3, §4

MMP-1 in NIH3T3 cells = assay: Inhibition of UV-induced MMP-1 expression (Western blot); format: cell-based, mouse; details: UVA at 6 J/cm^2, peptide at 10 µM, 50 µM, and 100 µM, 24 hours after irradiation, FIG. 6A
Method: as §1, §2

AQP3 (Aquaporin 3) gene = assay: mRNA expression of skin barrier-related genes (RT-PCR); format: cell-based, human; details: HaCaT cells; peptide at 10 µM, 50 µM, and 100 µM; 24 hours; FIG. 2
Method: (§5) The effect of the peptide prepared in Preparation Example 1 on expression of genes related to a skin barrier was evaluated.
(§6) HaCaT cells (a human keratinocyte cell line) were seeded in a 6-well plate at a density of 3 x 10^5 cells/well and cultured for 24 hours. The cultured cells were washed once with serum-free DMEM. The peptide prepared in Preparation Example 1 was mixed into serum-free DMEM at each concentration to prepare medium solutions containing the peptide at 10 µM, 50 µM, and 100 µM, and the medium solutions were added to the cells. The cells were cultured for 24 hours in a CO2 incubator at 37°C and washed twice with PBS, and then RNA was isolated using easy blue (iNtRON, Cat. No.: 17061, Korea). The amount of RNA was quantified, 1,000 ng of RNA was added per tube, and then cDNA synthesis was performed using an RT kit (enzynomics, Cat. No.: RT200, Korea). Thereafter, PCR was performed using a PCR kit (enzynomics, Cat. No.: P581T, Korea), with SIRT1 (Sirtuin 1) or AQP3 (Aquaporin 3) gene as a detection target.

SIRT1 (Sirtuin 1) gene = assay: as above; format: cell-based, human; details: HaCaT cells; peptide at 10 µM, 50 µM, and 100 µM; 24 hours; FIG. 2
Method: as §5, §6

SIRT1 gene = assay: Restoration of expression of skin barrier-related genes reduced by UV irradiation (RT-PCR); format: cell-based, human; details: HaCaT cells; UVB at 20 mJ/cm^2; peptide at 10 µM, 50 µM, and 100 µM; 4 hours after irradiation; FIG. 5
Method: (§7) Whether the peptide of SEQ ID NO: 1 prepared in Preparation Example 1 restores expression levels of skin barrier-related genes reduced by UV irradiation was evaluated.
as §4, with “HaCaT cells” for “NIH3T3 cells”, “(a human keratinocyte” for “(a mouse fibroblast”, “with UVB” for “with UVA”, “at 20 mJ/cm^2.” for “at 6 J/cm^2.”, “for 4” for “for 6”, “Korea). […]” for “Korea). Subsequently, PCR was performed using a PCR kit (enzynomics, Cat. No.: P581T, Korea), with collagen Iα1, fibronectin, or elastin gene as a detection target.”

AQP3 gene = assay: as above; format: cell-based, human; details: HaCaT cells; UVB at 20 mJ/cm^2; peptide at 10 µM, 50 µM, and 100 µM; 4 hours after irradiation; FIG. 5
Method: as §7
as §4, with “HaCaT cells” for “NIH3T3 cells”, “(a human keratinocyte” for “(a mouse fibroblast”, “with UVB” for “with UVA”, “at 20 mJ/cm^2.” for “at 6 J/cm^2.”, “for 4” for “for 6”, “Korea). […]” for “Korea). Subsequently, PCR was performed using a PCR kit (enzynomics, Cat. No.: P581T, Korea), with collagen Iα1, fibronectin, or elastin gene as a detection target.”

fibronectin gene [3] = assay: mRNA expression of extracellular matrix component genes (RT-PCR); format: cell-based, mouse; details: NIH3T3 cells; peptide at 10 µM, 50 µM, and 100 µM; 24 hours; FIG. 1
Method: (§8) The effect of the peptide prepared in Preparation Example 1 on expression of extracellular matrix (ECM) components was evaluated by measuring mRNA expression levels of the genes of the respective components.
as §6, with “NIH3T3” for “HaCaT”, “mouse fibroblast” for “human keratinocyte”, “collagen Iα1, fibronectin,” for “SIRT1 (Sirtuin 1)”, “elastin” for “AQP3 (Aquaporin 3)”

elastin gene [4] = assay: as above; format: cell-based, mouse; details: NIH3T3 cells; peptide at 10 µM, 50 µM, and 100 µM; 24 hours; FIG. 1
Method: as §8
as §6, with “NIH3T3” for “HaCaT”, “mouse fibroblast” for “human keratinocyte”, “collagen Iα1, fibronectin,” for “SIRT1 (Sirtuin 1)”, “elastin” for “AQP3 (Aquaporin 3)”

[5] = test system: collagen Iα1 (Collagen, type I, alpha 1) gene; assay: as above; format: cell-based, mouse; details: NIH3T3 cells; peptide at 10 µM, 50 µM, and 100 µM; 24 hours; FIG. 1
Method: as §8
as §6, with “NIH3T3” for “HaCaT”, “mouse fibroblast” for “human keratinocyte”, “collagen Iα1, fibronectin,” for “SIRT1 (Sirtuin 1)”, “elastin” for “AQP3 (Aquaporin 3)”

[6] = test system: reactive oxygen species (ROS) in NIH3T3 cells; assay: Inhibition of UV-induced generation of reactive oxygen species (DCFH-DA, FACS); format: cell-based, mouse; details: UVA at 6 J/cm^2, peptide at 10 µM, 50 µM, and 100 µM, 24 hours after irradiation, FIG. 3A
Method: (§9) NIH3T3 cells (a mouse fibroblast cell line) and HaCaT cells (a human keratinocyte cell line) were seeded in a 6-well plate at a density of 5 x 10^5 cells/well and cultured for 24 hours. The cultured cells were washed once with serum-free DMEM. The peptide prepared in Preparation Example 1 was mixed into serum-free DMEM at each concentration to prepare medium solutions containing the peptide at 10 µM, 50 µM, and 100 µM, and the medium solutions were added to the cells. The cells to which the peptide was added were cultured for 1 hour in a CO2 incubator at 37°C. After the culture, the medium was removed from the cells, and PBS was added. Using a UV irradiator (VILBER LOURMAT, Cat. No.: 3102-BSU, France), NIH3T3 cells were irradiated with UVA at 6 J/cm^2, and HaCaT cells were irradiated with UVB at 15 mJ/cm^2. After PBS was removed, the above-described peptide-containing medium solutions at the respective concentrations were added again to the cells. The cells to which the peptide was added were cultured for 24 hours in a CO2 incubator at 37°C. After treatment with 10 µM DCFH-DA (2',7'-dichlorofluorescein diacetate), the cells were wrapped in foil and cultured for 30 minutes in a CO2 incubator at 37°C. Subsequently, the cells were washed twice with PBS and then collected, and fluorescence values were measured by FACS.

[7] = test system: reactive oxygen species (ROS) in HaCaT cells; assay: as above; format: cell-based, human; details: UVB at 15 mJ/cm^2, peptide at 10 µM, 50 µM, and 100 µM, 24 hours after irradiation, FIG. 3B
Method: as §9

CC(C)C[C@H](NC(=O)[C@H](CC(C)C)NC(=O)[C@@H](N)CCCNC(=N)N)C(=O)N[C@@H](CC(N)=O)C(=O)O [peptide of SEQ ID NO: 1, RLLN] (H-RLLN-OH)
increase in MMP-1 expression induced by UV irradiation (MMP-1 in HaCaT cells): inhibited
mRNA expression level of collagen Iα1 gene reduced by UV irradiation (collagen Iα1 gene): increased again
mRNA expression level of fibronectin gene reduced by UV irradiation (fibronectin gene [1]): increased again
mRNA expression level of elastin gene reduced by UV irradiation (elastin gene [2]): increased again
increase in MMP-1 expression induced by UV irradiation (MMP-1 in NIH3T3 cells): inhibited
mRNA expression level of AQP3 (Aquaporin 3) gene (AQP3 (Aquaporin 3) gene): increased
mRNA expression level of SIRT1 (Sirtuin 1) gene (SIRT1 (Sirtuin 1) gene): increased
mRNA expression level of SIRT1 gene reduced by UV irradiation (SIRT1 gene): restored
mRNA expression level of AQP3 gene reduced by UV irradiation (AQP3 gene): restored
mRNA expression level of fibronectin gene (fibronectin gene [3]): increased
mRNA expression level of elastin gene (elastin gene [4]): increased
mRNA expression level of collagen Iα1 (Collagen, type I, alpha 1) gene [5]: increased
intracellular ROS levels increased by UV irradiation [6]: reduced
intracellular ROS levels increased by UV irradiation [7]: reduced
